Measurements taken from publication PMC9386018, “A lymphatic-absorbed multi-targeted kinase inhibitor for myelofibrosis therapy” (Nature Communications, 2022).
“And” between values parts separate entries of the source, which are not always exact repeats. Identical values can stand only once.

Tests used:
[1] = biological target: Target kinase isoforms (PI3K, mTOR, RAF, MEK) (Homo sapiens, UniProt P15056); assay: Target kinase isoforms 10-point IC50 determination (Supplementary Fig. 7); type: biochemical; settings: BRAF
Target kinase isoforms (PI3K, mTOR, RAF, MEK), sequence (P15056 whole entry, canonical isoform): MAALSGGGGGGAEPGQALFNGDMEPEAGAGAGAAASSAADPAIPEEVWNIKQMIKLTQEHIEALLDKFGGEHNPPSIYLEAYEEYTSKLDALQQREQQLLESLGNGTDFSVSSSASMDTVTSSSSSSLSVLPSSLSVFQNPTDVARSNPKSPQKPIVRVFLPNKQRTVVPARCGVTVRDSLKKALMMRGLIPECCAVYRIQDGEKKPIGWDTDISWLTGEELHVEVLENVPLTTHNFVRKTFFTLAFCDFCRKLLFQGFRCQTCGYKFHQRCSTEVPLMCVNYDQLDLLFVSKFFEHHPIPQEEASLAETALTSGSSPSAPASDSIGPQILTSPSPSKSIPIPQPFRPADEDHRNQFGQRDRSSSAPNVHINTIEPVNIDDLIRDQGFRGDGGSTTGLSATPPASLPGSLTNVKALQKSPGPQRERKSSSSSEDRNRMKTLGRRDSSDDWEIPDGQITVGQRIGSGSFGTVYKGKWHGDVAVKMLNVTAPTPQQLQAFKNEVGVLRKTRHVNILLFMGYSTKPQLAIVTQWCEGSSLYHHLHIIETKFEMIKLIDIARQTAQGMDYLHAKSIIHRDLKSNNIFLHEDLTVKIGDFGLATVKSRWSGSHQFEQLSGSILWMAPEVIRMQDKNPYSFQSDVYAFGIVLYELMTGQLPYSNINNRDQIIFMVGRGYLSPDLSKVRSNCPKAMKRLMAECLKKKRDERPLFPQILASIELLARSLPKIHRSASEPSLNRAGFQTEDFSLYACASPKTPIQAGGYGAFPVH
How it was run: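 Kinase activity across a 10-point dose series was corrected and normalized to vehicle-treated controls. IC50 values were derived by non-linear regression of percent activity. Kinome-wide percent inhibition was averaged over replicates.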

[2] = system: MPL^W515L mouse model of myelofibrosis; assay: MPL^W515L MF mouse model: tibia bone marrow ADC by diffusion-weighted MRI; type: in vivo; settings: MPL^W515L mice, oral 400 mg kg^−1 daily
Experimental: Generation of the MPL^W515L mutant MF mouse model was similar to previously described methods. Briefly, female donor BALB/c mice were treated with 5-fluorouracil at 150 mg kg^−1 intraperitoneal for 5 d before harvesting bone marrow. Hematopoietic stem and progenitor cells were enriched with CD117 magnetic beads (Miltenyi Biotec), transduced with retrovirus containing MSCV-hMPL W515L-IRES-GFP, then 50,000 transduced HSPCs along with 300,000 total non-stem cells were injected intravenously into lethally irradiated female BALB/c recipients. Development of MF was evaluated by spleen volumes using MRI beginning ~14 d following bone marrow transplantation (BMT) as outlined below, continuing weekly until end of the study. Mice were separated into equal groups based on spleen size ~14–21 d post-BMT, then treated with vehicle (Maisine CC) or LP-182 at 400 mg kg^−1 daily by oral gavage for 14–28 d or until mice were euthanized using guidelines for end stage illness and humane endpoints. Untreated healthy control animals were used for experimental comparisons. […] Soluble protein extracts were isolated by centrifugation at 15,000 x g for 15 min at 4 °C, quantified using Micro BCA protein assay (Thermo Scientific), then mixed with reducing 6X SDS-PAGE loading dye, heated for 8 min at 95 °C, and stored at −20 °C until immuno-blot analysis. […]

O=C(NOCCOCCOCCOCCC(=O)N1CCN(c2cnc3ccc(-c4cnc(Cl)c(NS(=O)(=O)c5ccc(F)cc5)c4)cc3n2)CC1)c1ccc(F)c(F)c1Nc1ccc(I)cc1F [LP-182, N-(2-(2-(2-(3-(4-(7-(6-chloro-5-((4-fluorophenyl)sulfonamido)pyridin-3-yl)quinoxalin-2-yl)piperazin-1-yl)-3-oxopropoxy)ethoxy)ethoxy)ethoxy)-3,4-difluoro-2-((2-fluoro-4-iodophenyl)amino)benzamide]
activity at 0.000495 µM ([1]; concentration 0.495 nM): 100% | Kinase Activity (%) BRAF ([1]; concentration 0.495 nM, 0.000495 µM): 102% and 96% and 94% and 93% | activity at 0.00152 µM ([1]; concentration 1.52 nM): 101% | Kinase Activity (%) BRAF ([1]; concentration 1.52 nM, 0.00152 µM): 98% and 95% and 94% | activity at 0.00457 µM ([1]; concentration 4.57 nM): 90% | Kinase Activity (%) BRAF ([1]; concentration 4.57 nM, 0.00457 µM): 94% and 95% and 98% and 89% and 93% | Kinase Activity (%) BRAF ([1]; concentration 41.2 nM, 0.0412 µM): 49% and 38% and 54% and 59% and 53% | Kinase Activity (%) BRAF ([1]; concentration 1110 nM, 1.11 µM): -5% and -3% and 2% and 4% and 5% | Kinase Activity (%) BRAF ([1]; concentration 3330 nM, 3.33 µM): -5% and 1% and 4% | tibia bone marrow ADC change [2]: variable, spatially-dependent increase in ADC values
